From US12221494B2, “Short synthetic peptides and their uses for treating retinal degenerative diseases and/or tissue injuries” (MacKay Memorial Hospital, priority 2019, dated 2025) come the findings set out here.

Assay [1] has as its system STZ-induced diabetic mice. Description: GFAP immunofluorescence staining of retina of STZ-induced diabetic mice. It counts as in vivo, mouse. The note with it: eye drop, 14 days after STZ injection, vehicle/STZ 24.3±2.7. The protocol: Deparaffinized retinal sections were blocked with 10% goat serum and 5% bovine serum albumin (BSA) in PBS containing 0.5% TritonX-100 (PBST) for 20 min at room temperature for blocking nonspecific staining. Staining was performed using primary antibodies against glial fibrillary acidic protein (GFAP) (1:100 dilution) or Iba-1 (1:100 dilution) at 37° C. for 3 h. The slides were subsequently incubated with the appropriate fluorescent-labeled secondary antibodies (1:500 dilution) at 37° C. for 1 h and then counterstained with Hoechst 33258 for 6 min. The slides were then rinsed with PBST three times, mounted with FluorSave™ reagent (Calbiochem) and viewed with an epifluorescence microscope (Zeiss Axioplan 2 imaging; Zeiss, Oberkochen, Germany) Three sections per eye were averaged and the mean of six eyes was recorded as the representative value for each group.
Diabetic mice were generated by intraperitoneal injection of streptozotocin (STZ; 200 mg/kg body weight) at day 1 and day 3. STZ was freshly prepared in 0.1 M citrate buffer (pH 4.5). After injection, mice were supplied with 10% sucrose overnight to prevent sudden hypoglycaemic shock. […] Vascular lesions in the retina was scored in all four retinal quadrants of flat mounts by an epifluorescence microscopy at 200×. […]

Another assay deals with IL-1β mRNA. Description: Hyperosmotic stress-induced IL-1β gene expression in rabbit corneal epithelial cells (qPCR). It is filed as cell-based. Particulars: 20 μM peptide 6 h, then hyperosmotic medium (463 mOsM) 3 h, solvent 4.5-fold. The protocol:
Total RNA was extracted from cells using TRIzol (Invitrogen). Synthesis of cDNA was performed with 1 μg of total RNA at 50° C. for 50 min using oligo(dT) primers and reverse transcriptase (Superscript III; Invitrogen). Briefly, quantification of cDNA was performed in the LightCycler (Roche, Mannheim, Germany) using the DNA Master SYBR Green I kit (Roche) with the following cycling conditions: initial denaturation at 95° C. for 10 min, followed by 40 cycles at 95° C. for 10 s, 60° C. for 10 s, and 72° C. for 10 s and a 5-min terminal incubation at 72° C. The data were calculated with AACt. The expression was then normalized against the expression of glyceraldehyde-3-phosphate dehydrogenase (GAPDH). The PCR primers were mouse Survivin sense, 5′-[…]-3′ (SEQ ID NO: 27), anti-sense, 5′-[…]-3′ (SEQ ID NO: 28) (accession number: NM_001012273.1; PCR product: 136 bp); mouse GAPDH sense, 5′-[…]-3′ (SEQ ID NO: 29), anti-sense, 5′-[…]-3′ (SEQ ID NO: 30) (NM_001289726.1; 149 bp). For analysis rabbit inflammatory gene expression, The PCR primers were rabbit TNF-αsense, 5′-[…]-3′ (SEQ ID NO: 31), anti-sense, 5′-[…]-3′ (SEQ ID NO: 32) (accession number: NM 001082263.1); rabbit IL-1βsense, 5′-[…]-3′(SEQ ID NO: 33), anti-sense, 5′-[…]-3′ (SEQ ID NO: 34) (NM 001082201.1); rabbit GAPDH sense, 5′-[…]-3′ (SEQ ID NO: 35), anti-sense, 5′-[…]-3′ (SEQ ID NO: 36) (accession number:NM 001082253.1). The cycle threshold (Ct) values of the PCR product and a GAPDH (Glyceraldehyde 3-phosphate dehydrogenase) control mRNA were used to calculate relative quantities of mRNA.
Limbal stem epithelial cells (LSEC) were isolated from 6-month-old New Zealand white rabbits and continuously cultivated for 14 days byDMEM/F-12basalmedium based cell-suspension culture to achieve corneal-liked epithelial cell differentiation as previously described (Ho et al., Stem Cells. 2013; 31:1775). […] After 3 h, quantitative real-time PCR was used to estimate HOP-induced Tumor necrosis factor (TNF)-α and nterleukin-1 beta (IL-1β) expressions. […]
A general note: In qPCR the cycle at which signal appears reflects the starting amount.

A further assay relates to Neuro-2a cells. Description: Glutamate-induced Neuro-2a cell death (LDH release). It counts as cell-based, mouse. The protocol: Neuro-2a cells were seeded in 48-well culture plates (1.5×10^5 cells/well) for 24 h, and then cultured in 0.5 ml fresh 2% FBS-DMEM medium containing 20 μM of the present peptide (7 μg of 6-mer in 0.5 ml medium) for further 4 h. Subsequently, 100 mM glutamate (from 1 M stock and PBS as solvent) was added to cells for further 6 h. Glutamate-induced cell death was quantitatively assessed by measuring lactate dehydrogenase (LDH) activity released into the culture medium by damaged cells. LDH activity was measured using PicoProbe™ LDH-Cytotoxicity Fluorometric Assay Kit (Catalog #K314-500; BioVision) according to the instruction manuals. LDH activity was estimated using an automated microplate reader (UVmax; Molecular Devices, San Francisco, CA) by measuring the fluorescent product (Ex/Em=535/587 nm).
Briefly, cells were pretreated with the designated peptide (i.e., any of SEQ ID NOs: 2 to 11) for 4 h and then treated with 100 mM glutamate for 6 h. The cell death was detected by a commercial lactate dehydrogenase (LDH) Cytotoxicity Assay Kit. Results are depicted in FIG. 1.
For orientation: LDH in the medium is a marker of cell lysis.

Regarding “NH2-(D-Ser)-Leu-Gly-Ala-Glu-Gln-COOH (SLGAEQ; HELM PEPTIDE1{[dS].L.G.A.E.Q}$$$$V2.0; SMILES CC(C)C[C@H](NC(=O)[C@H](N)CO)C(=O)NCC(=O)N[C@@H](C)C(=O)N[C@@H](CCC(=O)O)C(=O)N[C@@H](CCC(N)=O)C(=O)O) [6-mer dS]”, in assay [1], the GFAP-positive astrocytes came to 11.0±1.4 numbers/400× field. The “mRNA expression of IL-1β, in words” value in the assay on IL-1β mRNA is “apparently repressed the mRNA expression of TNF-α and IL-1β”. Moreover, the “glutamate-induced cell death (LDH release into the medium)” value with Neuro-2a cells (Neuro-2a cells, 20 μM peptide pretreatment 4 h, then 100 mM glutamate 6 h, solvent/glutamate control 7.6±0.8%) is on record as 1.5±0.5%. The “protective effect on Neuro-2a cells (neuroprotective activity), in words” value in the assay on Neuro-2a cells (glutamate-induced cell death) is “exhibited protective effect on Neuro-2a cells”.
